Where a name gives a salt, the structure may show the parent alone. Read-outs that look alike come from different tables or passages of the source.
Tests used:
[1] = Radiostability (RCP, Met═O by HPLC) of preformed ^177Lu-A with individual amino acids added (Example 1); assay type: physicochemical; conditions: amino acid 6.6 mg/mL, room temperature
Protocol: (§1) The injection volume was 20 μL.
Solutions of the individual amino acids L-Methionine, L-Selenomethionine, L-cysteine HCl.H2O, L-Tryptophan, L-Histidine, and Glycine were prepared at a concentration of 10 mg/mL in 10 mM Dulbecco's phosphate-buffered saline, pH 7.0 [PBS].
The final radioactive concentration of each sample was ˜20 mCi/mL.

[2] = ^177Lu-A 50 mCi in 2 mL, room temperature
[3] = assay type: physicochemical; conditions: stabilizer 5 mg/mL added after complex preparation; for RCP % t = 0 h: ^177Lu-A (3.34 mCi avg per aliquot), analysed 1-3.5 hrs after preparation; for RCP % t = 24 h: ^177Lu-A, room temperature
Protocol: In this study, sulfur-containing compounds were tested. Cysteine has been used as an antioxidant for many drugs that contain oxidizable residues.
Solutions of each individual stabilizer (10 mg/mL) were prepared in water. To a lead-shielded 4-mL vial was added 300 μL of NaOAc buffer (0.2M, pH 4.8), 29.0 mCi ^177LuCl3 and 41.4 μg COMPOUND A (dissolved in water). The ratio of COMPOUND A to Lutetium was 3:1. The reaction mixture was heated, cooled, treated with Na2EDTA.2H2O and analyzed by HPLC as described in Example 13. Seven 50-μL aliquots (3.34 mCi ^177Lu avg each) were transferred to individual HPLC vials. To one aliquot, 50 μL of water was added for use as a control sample (no stabilizer). To the other six aliquots, 50 μL of an individual stabilizer solution (0.5 mg of stabilizer) was added, and then each was analyzed by HPLC (Method 2). The control sample, and L-cysteine ethyl ester hydrochloride and L-cysteine methyl ester hydrochloride samples were analyzed again after 24 hours of storage at room temperature.

[4] = assay type: physicochemical; conditions: for RCP % t = 0 h: ^177Lu-A (4.80 mCi) prepared in presence of stabilizer 5 mg/mL; for RCP % t = 24 h / RCP % t = 48 h / RCP (%) t = 72 h: ^177Lu-A prepared in presence of stabilizer 5 mg/mL, room temperature
Protocol: Solutions of L-cysteine ethyl ester hydrochloride and L-cysteine methyl ester hydrochloride (5 mg/mL) were prepared by dissolving them in NaOAc buffer (0.2 M, pH 4.8). To lead-shielded 4-mL vials were added 200 μL of the individual NaOAc-stabilizer solutions, 4.80 mCi ^177LuCl3 and 7.26 μg COMPOUND A (dissolved in water). The ratio of COMPOUND A to Lutetium was 3:1 for all samples. The reaction mixtures were heated, cooled, treated with Na2EDTA.2H2O and analyzed by HPLC as described in Example 13, and then each was stored at room temperature for 72 hours. Each sample was analyzed by HPLC (Method 2) at t=0, 24, 48 and 72 h.

[5] = assay type: physicochemical
Protocol: The reaction vial was crimp-sealed and heated at 100° C. for 5 min. […] The sample was stored in an autosampler in which the temperature is ˜6° C. […] than room temperature, and analyzed by RP-HPLC for up to 24 hours.
L-Selenomethionine: ^177Lu-B was prepared, diluted and analyzed as described above, but 5 mg of L-Se-Met was used in place of PDTC, the heating time was 10 minutes, and the quantity of radioactivity used was 52 mCi.
L-cysteine ethyl ester, HCl: ^177Lu-B was prepared, diluted and analyzed as described above, but 5 mg of L-CEE, hydrochloride salt was used in place of PDTC, the heating time was 5 minutes and the quantity of radioactivity used was 50 mCi.
L-cysteine HCl.H2O: ^177Lu-B was prepared, diluted and analyzed as described above, but 5 mg of L-Cys HCl.H2O was used in place of PDTC, the heating time was 8 minutes and the quantity of radioactivity used was 53 mCi.

[6] = assay type: physicochemical; conditions: ^177Lu-A 13.9 mCi/mL, stabilizer 5 mg/mL added after complex preparation, room temperature
Protocol: as §1
Compounds containing the —C═S moiety [dithiocarbamates and ethionamide] were examined in this study.
Each individual stabilizer was prepared at a concentration of 10 mg/mL in water. Ethionamide was dissolved in EtOH. […] The reaction mixture was heated to 100° C. for 5 minutes, then cooled for 5 minutes in an ambient-temperature water bath. […] To an aliquot, 100 μL of one of the stabilizer solutions (1 mg of stabilizer) was added. Each aliquot was analyzed (t=0 h) by HPLC (Method 2) and stored at room temperature for 48 hours. All samples were analyzed again at t=24 h and 48 h.

[7] = assay type: physicochemical; remark: listed apart in the source
Protocol: as §1
Ethionamide was prepared at a 10 mg/mL concentration by dissolving it in EtOH. […] Another sample was prepared to which was added 100 μL of ethanol only (no stabilizer), for use as a control sample. […] The reaction mixture was heated to 100° C. for 5 minutes then cooled for 5 minutes in an ambient-temperature water bath. To each sample, 10 μL of 2% Na2EDTA.2H2O in water was added, and then each was analysed by HPLC (Method 2) and stored at room temperature for up to 96 hours.

[8] = assay type: physicochemical; remark: listed apart in the source
Protocol: The ratio of COMPOUND A to Lutetium was 3:1 for all samples. The reaction mixtures were heated, cooled, treated with Na2EDTA.2H2O and analyzed by HPLC as described in Example 13, and then stored at room temperature for 24 hours, at which time all samples were analyzed again.

Compound: CSCC[C@H](N)C(=O)O [L-Methionine]
- 0-1 h RCP (%) ([1]; ^177Lu-A ~20 mCi/mL (3.5 mCi total), 0-1 h): 100%
- 24-h RCP (%) ([1]; ^177Lu-A ~20 mCi/mL, 24 h): 99.3%
- 48-h RCP (%) ([1]; ^177Lu-A ~20 mCi/mL, 48 h): 94%
- % RCP 0-d ([2]; 2.5 mg/mL L-methionine (5 mg), 0 d): 96.1%
- % RCP 1-d ([2]; 2.5 mg/mL L-methionine, 1 d): 53.5%
- % RCP 2-d ([2]; 2.5 mg/mL L-methionine, 2 d): 26.9%
- % RCP 5-d ([2]; 2.5 mg/mL L-methionine, 5 d): 0%

Compound: CCOC(=O)[C@@H](N)CS [L-cysteine ethyl ester hydrochloride]
- RCP % t = 0 h [3]: 91.5%
- RCP % t = 24 h [3]: 73.2%
- RCP % t = 0 h [4]: 100%
- RCP % t = 24 h [4]: 96.5%
- RCP % t = 48 h [4]: 93.5%
- RCP (%) t = 72 h [4]: 87.4%
- (% RCP) 3-h ([5]; ^177Lu-B (44-53 mCi) formulated with 5 mg stabilizing compound, 3 h): 96.9%
- (% RCP) 6-h ([5]; ^177Lu-B (44-53 mCi) formulated with 5 mg stabilizing compound, 6 h): 94.7%
- (% RCP) 9-h ([5]; ^177Lu-B (44-53 mCi) formulated with 5 mg stabilizing compound, 9 h): 92.8%
- (% RCP) 12-h ([5]; ^177Lu-B (44-53 mCi) formulated with 5 mg stabilizing compound, 12 h): 92.2%
- (% RCP) 24-h ([5]; ^177Lu-B (44-53 mCi) formulated with 5 mg stabilizing compound, 24 h): 85.1%
- (% RCP) 0-h ([5]; ^177Lu-B (44-53 mCi) formulated with 5 mg stabilizing compound, diluted to ~2 mL, ~6° C. above room temperature, 0 h): 98.4%
- RCP Drop over 24 hr ([5]; ^177Lu-B formulated with 5 mg stabilizing compound, 0 to 24 h): 13.3%

Compound: CCc1cc(C(N)=S)ccn1 [Ethionamide, 2-Ethyl-4-pyridinecarbothioamide (Ethionamide), reference compound]
- RCP % t = 0 h ([6]; 0 h): 97.4%
- RCP % t = 24 h ([6]; 24 h): 97.0%
- RCP % t = 48 h ([6]; 48 h): 94.7%
- RCP % t = 0 h ([7]; ^177Lu-A (5.25 mCi avg) prepared in presence of stabilizer ~3.33 mg/mL, 0 h): 100%
- RCP % t = 24 h ([7]; ^177Lu-A prepared in presence of stabilizer ~3.33 mg/mL, room temperature, 24 h): 98.1%
- RCP % t = 96 h ([7]; ^177Lu-A prepared in presence of stabilizer ~3.33 mg/mL, room temperature, 96 h): 94.6%
- RCP % t = 0 h ([8]; ^177Lu-A (4.65-5.64 mCi) prepared in presence of stabilizer 5 mg/mL, 0 h): 80.8%
- RCP % t = 24 h ([8]; ^177Lu-A prepared in presence of stabilizer 5 mg/mL, room temperature, 24 h): 77.5%

Compound: COC(=O)[C@@H](N)CS [L-cysteine methyl ester hydrochloride]
- RCP % t = 0 h [3]: 90.4%
- RCP % t = 24 h [3]: 74.4%
- RCP % t = 0 h [4]: 100%
- RCP % t = 24 h [4]: 97.1%
- RCP % t = 48 h [4]: 93.7%
- RCP (%) t = 72 h [4]: 87.2%

— patent US20120065365A1, “Stable Radiopharmaceutical Compositions and Methods for Their Preparation” (BRACCO IMAGING S.P.A., priority 2003, published 2012)
